The source of these data is patent US7524973B2, “Nitrate esters of phenylaminothiophenacetic acid derivatives” (Altana Pharma AG, priority 2003, dated 2009).

In one assay the target is T1, COX-2 (Homo sapiens, UniProt P35354).
T1 construct: Fresh blood was collected in heparinized (8 U/ml, Roche, Switzerland) tubes; from tissue; host or cells: heparinized fresh whole blood stimulated with LPS for 24 h
T1 sequence (P35354 18-604): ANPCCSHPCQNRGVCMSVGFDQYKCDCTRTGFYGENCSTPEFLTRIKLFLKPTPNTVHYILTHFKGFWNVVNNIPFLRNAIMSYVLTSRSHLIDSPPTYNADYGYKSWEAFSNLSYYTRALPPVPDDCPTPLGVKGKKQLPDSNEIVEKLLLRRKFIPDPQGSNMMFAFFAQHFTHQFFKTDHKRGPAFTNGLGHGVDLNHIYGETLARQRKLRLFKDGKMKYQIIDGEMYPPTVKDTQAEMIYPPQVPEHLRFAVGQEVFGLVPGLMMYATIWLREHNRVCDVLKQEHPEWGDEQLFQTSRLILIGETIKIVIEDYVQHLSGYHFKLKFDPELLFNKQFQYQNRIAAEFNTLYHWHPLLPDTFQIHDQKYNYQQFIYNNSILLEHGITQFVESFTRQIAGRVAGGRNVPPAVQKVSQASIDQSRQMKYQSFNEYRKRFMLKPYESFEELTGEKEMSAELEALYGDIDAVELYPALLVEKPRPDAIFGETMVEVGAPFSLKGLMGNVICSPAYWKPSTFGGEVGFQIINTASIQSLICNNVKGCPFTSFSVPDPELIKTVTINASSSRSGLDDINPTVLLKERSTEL
Briefly: In vitro Cox-2 assay (LPS-stimulated whole blood, PGE2). In kind it is cell-based. To be noted: heparinized blood, LPS 24 h, PGE2 immunoassay; read-out: Inhibition of COX-2 activity [measured as pIC50] (converted). Here is the method: Fresh blood was collected in heparinized (8 U/ml, Roche, Switzerland) tubes by venipuncture from both male and female volunteers with consent The subjects had no apparent inflammatory conditions and had not taken any NSAIDs for the last 7 days prior to blood collection. 450 μl aliquots of blood were incubated in deep wells with either 1 μl vehicle (DMSO) or 1 μl of test compound at a final concentration varying from 100 μM-10 nM for 15 min at 37° C. This was followed by incubation of the blood with 50 μl lipopolysaccharide (LPS, Sigma, Germany) 10 μg/ml in 0.1% Hydroxylamine/PBS (Sigma) for 24 h. At the end of incubation the blood was centrifuged at 2000 g for 5 min and […] supernatant was assayed for PGE2 using a immunoassay kit (RD Systems, Germany )
(§1) The data were analysed from 2-3 independent dose response curves with a nonlinear estimation program using GRAPHPAD/Prism and given as pIC50

The next assay deals with T2, COX-1 (Homo sapiens, UniProt P23219).
T2 construct: Fresh blood was collected into vacutainers containing no anticoagulants; from tissue; host or cells: fresh whole blood without anticoagulant, allowed to clot
T2 sequence (P23219 24-599): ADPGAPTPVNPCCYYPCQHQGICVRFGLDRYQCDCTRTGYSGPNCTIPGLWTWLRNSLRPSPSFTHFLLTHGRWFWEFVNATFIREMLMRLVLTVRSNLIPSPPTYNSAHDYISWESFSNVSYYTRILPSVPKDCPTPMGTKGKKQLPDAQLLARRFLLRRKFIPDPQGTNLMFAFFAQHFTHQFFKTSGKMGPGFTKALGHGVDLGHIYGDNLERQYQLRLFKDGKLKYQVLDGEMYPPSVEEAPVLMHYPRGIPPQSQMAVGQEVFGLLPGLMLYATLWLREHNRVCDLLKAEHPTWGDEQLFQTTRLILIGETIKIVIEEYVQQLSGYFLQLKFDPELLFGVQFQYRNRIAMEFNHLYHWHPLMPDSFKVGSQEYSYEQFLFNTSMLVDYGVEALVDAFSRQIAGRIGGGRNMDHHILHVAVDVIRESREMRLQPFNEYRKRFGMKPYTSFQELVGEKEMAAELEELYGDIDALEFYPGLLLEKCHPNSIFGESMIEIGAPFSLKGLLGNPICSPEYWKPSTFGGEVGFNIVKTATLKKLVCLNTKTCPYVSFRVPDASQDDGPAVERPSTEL
Briefly: In vitro Cox-1 assay (whole blood, TxB2). The class given is cell-based. To be noted: fresh blood without anticoagulant, clotting 1 h at 37° C., TxB2 immunoassay; read-out: Inhibition of COX-1 activity [measured as pIC50] (converted). As to the method:
Fresh blood was collected into vacutainers containing no anticoagulants. Aliquots of 450 μl were immediately transferred to deep well plates preloaded with 1 μl of either DMSO or a test compound at final concentration of 100 μM-10 nM. In addition 50 μl of Hydroxylamine/PBS were added and the tubes were vortexed and incubated at 37° C. for 1 h to allow the blood to clot. At the end of incubation, serum was obtained by centrifugation (2000 g/5 min) and the supernatant was assayed for TxB2 using a immunoassay kit (RD Systems, Germany) according to the manufactures instruction.
as §1

Regarding `O=C(Cc1cscc1Nc1c(Cl)cccc1Cl)OCCCCO[N+](=O)[O-]` [Compound 1, [4-(2,6-Dichlorophenylamino)-thiophen-3-yl]-acetic acid 4-nitrooxybutyl ester], the IC50 at COX-2 is 72.4 nM; on COX-1 it was 89.1 nM.
